Like-named read-outs stand apart in the source and are kept apart here. Where a SMILES comes first, the peptide text is derived from it.
Tests used:
[1] = system: Alternaria alternata CCM F-128; assay: Antifungal activity (filamentous fungi), macrodilution on solidified PDA; type: cell-based; details: A. alternata, read-out: IC50 and MIC100 (class symbol)
Method: (§3) Cultures of bacteria (in Mueller-Hinton broth, MHB) and yeasts (in Sabouraud’s growth medium, SB) were incubated under shaking (250 rpm) at 37 °C. The growth of bacteria and yeasts was evaluated by measuring the absorbance of the growing cultures (A550) until the cultures reached the stationary growth phase. […] During culturing, the diameters of growing fungal colonies were measured at regular intervals [71, 72]. […] The final concentration of DMSO never exceeded 1.0 vol. % in the control or treated samples. […] The IC50 and MIC90 with respect to MIC80 values were evaluated from toxicity curves.

[2] = system: Rhizopus oryzae CCM F-8284; assay: as above; type: cell-based
Method: as §3

[3] = system: Candida albicans SC 5314; assay: Antifungal activity (yeast), macrodilution method; type: cell-based; details: C. albicans
Method: as §3

[4] = system: methicillin-resistant Staphylococcus aureus L12; assay: Antibacterial activity, macrodilution method; type: cell-based; details: S. aureus L12; free ligands
Method: (§4) Cultures of bacteria (in Mueller-Hinton broth, MHB) and yeasts (in Sabouraud’s growth medium, SB) were incubated under shaking (250 rpm) at 37 °C. The growth of bacteria and yeasts was evaluated by measuring the absorbance of the growing cultures (A550) until the cultures reached the stationary growth phase. […] The final concentration of DMSO never exceeded 1.0 vol. % in the control or treated samples. […] The IC50 and MIC90 with respect to MIC80 values were evaluated from toxicity curves.

[5] = system: Candida parapsilosis ATCC 22019; assay: Antifungal activity (yeast), macrodilution method; type: cell-based; details: C. parapsilosis
Method: as §4

[6] = system: Escherichia coli (E. coli) CCM 3988; assay: Antibacterial activity, macrodilution method; type: cell-based; details: free ligands
Method: as §4

[7] = system: A.flavus; assay: Antifungal activity (filamentous fungi); type: cell-based; details: read-out: IC50 and MIC100 (class symbol)
Method: as §3

[8] = system: Staphylococcus aureus CCM 3953; assay: Antibacterial activity, macrodilution method; type: cell-based; details: S. aureus; free ligands
Method: as §4

[9] = system: Staphylococcus epidermidis CCM 7221; assay: Antibacterial activity, macrodilution method; type: cell-based; details: S.epidermidis; free ligands
Method: as §4

[10] = system: Microsporum gypseum CCM F-8342; assay: Antifungal activity (filamentous fungi), macrodilution on solidified PDA; type: cell-based; details: M.gypseum, read-out: IC50 and MIC100 (class symbol)
Method: as §3

[11] = system: HeLa; assay: MTS antiproliferative assay; type: cell-based, human; details: 72 h
Method: (§1) After 72 h of incubation, 10 µL of MTS was added to each well. […] IC50 values were calculated from MTS analyses.

[12] = system: MCF-7; assay: MTS antiproliferative assay; type: cell-based, human; details: 72 h
Method: as §1

[13] = system: BJ-5ta; assay: MTS assay on fibroblasts; type: cell-based; details: BJ-5ta human skin fibroblasts, 72 h
Method: as §1

[14] = system: BLM; assay: MTS antiproliferative assay; type: cell-based, human; details: BLM; MTS, 72 h
Method: (§2) Cells were maintained in standard conditions with an atmosphere containing 5% CO2 at 37 °C.
as §1

[15] = system: MDA-MB-231; assay: MTS antiproliferative assay; type: cell-based, human; details: 72 h
Method: as §2, §1

[16] = system: Jurkat; assay: MTS antiproliferative assay; type: cell-based, human; details: 72 h
Method: as §2, §1

[17] = system: HCT116; assay: MTS antiproliferative assay; type: cell-based, human; details: 72 h
Method: as §2, §1

[18] = read-out: IC50 and MIC100 (class symbol)

SMILES | IC50 [1] [µM] | IC50 [2, 18] [µM] | IC50 [7] [µM] | IC50 [10] [µM] | IC50 and MIC80 (class symbol) [3] | IC50 and MIC90 (class symbol) [4] | IC50 and MIC80 (class symbol) [5] | IC50 and MIC90 (class symbol) [6] | IC50 and MIC90 (class symbol) [8] | IC50 and MIC90 (class symbol) [9] | IC50 [11] [µM] | IC50 [12] [µM] | IC50 [13] [µM] | IC50 [14] [µM] | IC50 [15] [µM] | IC50 [16] [µM] | IC50 [17] [µM] | other results
C[C@H](N)C(=O)O [Ala, alanine, reference compound] |  |  |  |  | N (N- not active IC50 and MIC values > 2 mmol.l-1) | N (N- not active IC50 and MIC90 values > 2 mmol.l-1) | N (N- not active IC50 and MIC values > 2 mmol.l-1) | N (N- not active IC50 and MIC90 values > 2 mmol.l-1) | N (N- not active IC50 and MIC90 values > 2 mmol.l-1) | N (N- not active IC50 and MIC90 values > 2 mmol.l-1) |  |  |  |  |  |  |  | IC50 ([1]; Alternaria alternata, CCMF128): > 2000 µM; IC50 ([2]; Rhizopus arrhizus, CCMF8284, read-out: IC50 and MIC100 (class symbol)): > 2000 µM; IC50 ([7]; Aspergillus flavus): > 2000 µM; IC50 ([10]; Nannizzia gypsea, CCMF8342): > 2000 µM
N.N.[Cl][Pt][Cl] [cisPt, cisplatin] |  |  |  |  |  |  |  |  |  |  | 35.4 | 29.7 | 37.9 | 29.5 | 7.1 | 6.3 | 7.4 | 
O=[N+]([O-])[O-].[Ag+] [AgNO3, silver(I) nitrate] |  |  |  |  |  |  |  |  |  |  | 45.3 | 13.2 | 24.3 | 31.5 | 25.9 | 6.6 | 21.8 | 

Continued, in another order:

IC50 [1] [µM] | IC50 [2, 18] [µM] | IC50 [7] [µM] | IC50 [10] [µM] | SMILES | IC50 and MIC80 (class symbol) [3] | IC50 and MIC90 (class symbol) [4] | IC50 and MIC80 (class symbol) [5] | IC50 and MIC90 (class symbol) [6] | IC50 and MIC90 (class symbol) [8] | IC50 and MIC90 (class symbol) [9] | IC50 [11] [µM] | IC50 [12] [µM] | IC50 [13] [µM] | IC50 [14] [µM] | IC50 [15] [µM] | IC50 [16] [µM] | IC50 [17] [µM] | other results
> 2000 | > 2000 | > 2000 | > 2000 | NCC(=O)O [Gly, glycine, reference compound] | N (N- not active IC50 and MIC values > 2 mmol.l-1) | N (N- not active IC50 and MIC90 values > 2 mmol.l-1) | N (N- not active IC50 and MIC values > 2 mmol.l-1) | N (N- not active IC50 and MIC90 values > 2 mmol.l-1) | N (N- not active IC50 and MIC90 values > 2 mmol.l-1) | N (N- not active IC50 and MIC90 values > 2 mmol.l-1) |  |  |  |  |  |  |  | 
> 2000 | > 2000 | > 2000 | > 2000 | C[C@H](NC(=O)CN)C(=O)O [HGlyAla, Glycyl-L-Alanine, reference compound] (H-Gly-Ala-OH) | N (N- not active IC50 and MIC values > 2 mmol.l-1) | N (N- not active IC50 and MIC90 values > 2 mmol.l-1) | N (N- not active IC50 and MIC values > 2 mmol.l-1) | N (N- not active IC50 and MIC90 values > 2 mmol.l-1) | N (N- not active IC50 and MIC90 values > 2 mmol.l-1) | N (N- not active IC50 and MIC90 values > 2 mmol.l-1) | > 300 | > 300 | > 300 | > 300 | > 300 | > 300 | > 300 | 
> 2000 | > 2000 | > 2000 | > 2000 | NCC(=O)NCC(=O)O [HGlyGly, Glycyl-L-Glycine, reference compound] (H-Gly-Gly-OH) | N (N- not active IC50 and MIC values > 2 mmol.l-1) | N (N- not active IC50 and MIC90 values > 2 mmol.l-1) | N (N- not active IC50 and MIC values > 2 mmol.l-1) | N (N- not active IC50 and MIC90 values > 2 mmol.l-1) | N (N- not active IC50 and MIC90 values > 2 mmol.l-1) | N (N- not active IC50 and MIC90 values > 2 mmol.l-1) |  |  |  |  |  |  |  | 

Source: paper PMC8587849, “Antimicrobial and Anticancer Application of Silver(I) Dipeptide Complexes” (Molecules, 2021)
